In brackets after ≈: the same amount, converted by molar mass. Activity calls are given as the source filed them. The calls are words filed in the database; no cut-off is given here. Non-standard residues stand in square brackets, D forms with d. Residues, ends and D or L forms follow the SMILES beside them. *: point of attachment. Arg(Me2a) = CN(C)C(=N)NCCC[C@H](N)C(=O)O; X1 = F[B-]1(F)n2c(ccc2*)C=C2C=CC=[N+]21
Columns and labels:
[1] = system: Escherichia coli; assay: Antimicrobial activity against Escherichia coli HB101 incubated for 18 hrs at 37 degC by broth microdilution method; assay type: functional; settings: HB101, 18 h
[2] = system: Escherichia coli; assay: Antimicrobial activity against Escherichia coli ATCC 25922 incubated for 18 hrs at 37 degC by broth microdilution method; assay type: functional; settings: ATCC 25922, 18 h
[3] = system: Escherichia coli; assay: Drug uptake in O-antigen lacking LPS containing wild type Escherichia coli BW25113 at 1 uM up to 3.5 hrs in presence of trypan blue quencher; assay type: ADME, organism-based; settings: in vivo
[4] = system: Escherichia coli; assay: Drug uptake in delta-waaG deletion mutant containing Escherichia coli BW25113 at 4 uM up to 3.5 hrs in presence of trypan blue quencher; assay type: ADME, organism-based; settings: in vivo
[5] = system: Escherichia coli; assay: Antimicrobial activity against delta-waaG deletion mutant containing Escherichia coli BW25113 incubated for 18 hrs at 37 degC by broth microdilution method; assay type: functional; settings: BW25113, 18 h
[6] = system: Escherichia coli; assay: Bacteriostatic activity against O-antigen lacking LPS containing wild type Escherichia coli BW25113 at 4 uM incubated for 3.5 hrs; assay type: functional, organism-based
[7] = system: Escherichia coli; assay: Antimicrobial activity against delta-sbmA deletion mutant containing Escherichia coli BW25113 incubated for 18 hrs at 37 degC by broth microdilution method; assay type: functional; settings: BW25113, 18 h
[8] = system: Escherichia coli; assay: Antimicrobial activity against O-antigen lacking LPS containing wild type Escherichia coli BW25113 incubated for 18 hrs at 37 degC by broth microdilution method; assay type: functional; settings: BW25113, 18 h
[9] = system: Escherichia coli; assay: Bacteriostatic activity against delta-waaG deletion mutant containing wild type Escherichia coli BW25113 at 4 uM incubated for 3.5 hrs; assay type: functional, organism-based
[10] = system: Escherichia coli; assay: Drug uptake in Escherichia coli ATCC 25922 assessed as mean fluorescence intensity using BODIPY-labeled compound at 0.25 uM incubated for 10 mins by confocal microscopy; assay type: ADME, organism-based; settings: in vivo
[11] = system: Escherichia coli; assay: Drug uptake in Escherichia coli ATCC 25922 assessed as mean fluorescence intensity using BODIPY-labeled compound at 0.25 to 4 uM incubated for 60 mins in presence of trypan blue quencher by flow cytometry; assay type: ADME, organism-based; settings: in vivo, 1 h
[12] = system: Escherichia coli; assay: Drug uptake in Escherichia coli ATCC 25922 assessed as mean fluorescence intensity using BODIPY-labeled compound at 0.25 to 4 uM incubated for 10 mins by flow cytometry; assay type: ADME, organism-based; settings: in vivo
[13] = system: Escherichia coli; assay: Drug uptake in Escherichia coli ATCC 25922 assessed as mean fluorescence intensity using BODIPY-labeled compound at 0.25 to 4 uM incubated for 10 mins in presence of trypan blue quencher by flow cytometry; assay type: ADME, organism-based; settings: in vivo
[14] = system: Escherichia coli; assay: Drug uptake in Escherichia coli ATCC 25922 assessed as mean fluorescence intensity using BODIPY-labeled compound at 0.25 to 4 uM incubated for 60 mins by flow cytometry; assay type: ADME, organism-based; settings: in vivo, 1 h

Compound: H-RRIRPRPPRLPRPRPR-OH
- MIC [1]: 0.5 µM
- MIC [2]: 0.5 µM

Compound: CC[C@H](C)[C@H](N)C(=O)N[C@@H](CCCNC(=N)N)C(=O)N1CCC[C@H]1C(=O)N[C@@H](CCCNC(=N)N)C(=O)N1CCC[C@H]1C(=O)N1CCC[C@H]1C(=O)N[C@@H](CCCNC(=N)N)C(=O)N[C@@H](CC(C)C)C(=O)N1CCC[C@H]1C(=O)N[C@@H](CCCNC(=N)N)C(=O)N1CCC[C@H]1C(=O)N[C@@H](CCCNC(=N)N)C(=O)N1CCC[C@H]1C(=O)N[C@@H](CCCNC(=N)N)C(=O)N1CCC[C@H]1C(=O)N[C@@H](CC(C)C)C(=O)N1CCC[C@H]1C(=O)N[C@@H](Cc1ccc(O)cc1)C(=O)N1CCC[C@H]1C(=O)N[C@@H](CCCNC(=N)N)C(=O)N1CCC[C@H]1C(=O)N[C@@H](CSc1ccc2n1[B-](F)(F)[N+]1=CC=CC1=C2)C(=O)O (H-IRPRPPRLPRPRPRPLPYPRPC(X1)-OH)
- Drug uptake [3]: Active
- Drug uptake [4]: Active

Compound: H-RRIRPRPPRLPRP-OH
- MIC [1]: 64 µM
- MIC [2]: > 128 µM

Compound: H-IRPRPPRLPRPRPRPLPYPRP-OH
- MIC [5]: 4 µM
- MIC [2]: 8 µM
- Activity [6]: Active
- MIC [7]: 32 µM
- MIC [8]: 8 µM
- Activity [9]: Active

Compound: CC[C@H](C)[C@H](NC(=O)[C@H](CCCNC(=N)N(C)C)NC(=O)[C@@H](N)CCCNC(=N)N)C(=O)N[C@@H](CCCNC(=N)N)C(=O)N1CCC[C@H]1C(=O)N[C@@H](CCCNC(=N)N)C(=O)N1CCC[C@H]1C(=O)N1CCC[C@H]1C(=O)N[C@@H](CCCNC(=N)N)C(=O)N[C@@H](CC(C)C)C(=O)N1CCC[C@H]1C(=O)N[C@@H](CCCNC(=N)N)C(=O)N1CCC[C@H]1C(=O)N[C@@H](CCCNC(=N)N)C(=O)N1CCC[C@H]1C(=O)N[C@@H](CCCNC(=N)N)C(=O)N1CCC[C@H]1C(=O)N[C@@H](CC(C)C)C(=O)N1CCC[C@H]1C(=O)N[C@@H](Cc1ccc(O)cc1)C(=O)N1CCC[C@H]1C(=O)N[C@@H](CCCNC(=N)N)C(=O)N1CCC[C@H]1C(=O)O (H-R[Arg(Me2a)]IRPRPPRLPRPRPRPLPYPRP-OH)
- MIC [5]: 1 µM (≈ 2.93 µg/mL)
- MIC [2]: 4 µM (≈ 11.7 µg/mL)
- MIC [7]: 8 µM (≈ 23.4 µg/mL)
- MIC [8]: 4 µM (≈ 11.7 µg/mL)

Compound: CC[C@H](C)[C@H](NC(=O)[C@H](CCCNC(=N)N)NC(=O)[C@@H](N)CCCNC(=N)N)C(=O)N[C@@H](CCCNC(=N)N)C(=O)N1CCC[C@H]1C(=O)N[C@@H](CCCNC(=N)N)C(=O)N1CCC[C@H]1C(=O)N1CCC[C@H]1C(=O)N[C@@H](CCCNC(=N)N)C(=O)N[C@@H](CC(C)C)C(=O)N1CCC[C@H]1C(=O)N[C@@H](CCCNC(=N)N)C(=O)N1CCC[C@H]1C(=O)N[C@@H](CCCNC(=N)N)C(=O)N1CCC[C@H]1C(=O)N[C@@H](CCCNC(=N)N)C(=O)N1CCC[C@H]1C(=O)N[C@@H](CC(C)C)C(=O)N1CCC[C@H]1C(=O)N[C@@H](Cc1ccccc1)C(=O)N1CCC[C@H]1C(=O)N[C@@H](CCCNC(=N)N)C(=O)N1CCC[C@H]1C(=O)NCC(=O)N1CCC[C@H]1C(=O)N[C@@H](CCCNC(=N)N)C(=O)N1CCC[C@H]1C(=O)N[C@H](C(=O)N1CCC[C@H]1C(=O)N[C@@H](CCCNC(=N)N)C(=O)N1CCC[C@H]1C(=O)N[C@@H](CC(C)C)C(=O)N1CCC[C@H]1C(=O)N[C@@H](Cc1ccccc1)C(=O)N1CCC[C@H]1C(=O)N[C@@H](CSc1ccc2n1[B-](F)(F)[N+]1=CC=CC1=C2)C(=O)O)[C@@H](C)CC (H-RRIRPRPPRLPRPRPRPLPFPRPGPRPIPRPLPFPC(X1)-OH)
- Drug uptake [10]: Active
- Drug uptake [11]: Active
- Drug uptake [12]: Active
- Drug uptake [13]: Active
- Drug uptake [14]: Active

Compound: H-RRIRPRPPRLPRPRPC-OH
- MIC [1]: 8 µM
- MIC [2]: 8 µM

Compound: CC[C@H](C)[C@H](NC(=O)[C@H](CCCNC(=N)N)NC(=O)[C@@H](N)CCCNC(=N)N)C(=O)N[C@@H](CCCNC(=N)N)C(=O)N1CCC[C@H]1C(=O)N[C@@H](CCCNC(=N)N)C(=O)N1CCC[C@H]1C(=O)N1CCC[C@H]1C(=O)N[C@@H](CCCNC(=N)N)C(=O)N[C@@H](CC(C)C)C(=O)N1CCC[C@H]1C(=O)N[C@@H](CCCNC(=N)N)C(=O)N1CCC[C@H]1C(=O)N[C@@H](CCCNC(=N)N)C(=O)N1CCC[C@H]1C(=O)N[C@@H](CCCNC(=N)N)C(=O)N[C@@H](CSc1ccc2n1[B-](F)(F)[N+]1=CC=CC1=C2)C(=O)O (H-RRIRPRPPRLPRPRPRC(X1)-OH)
- MIC [1]: 0.5 µM (≈ 1.18 µg/mL)
- MIC [2]: 0.5 µM (≈ 1.18 µg/mL)

Compound: H-RRIRPRPPRLPRPRP-OH
- MIC [1]: 16 µM
- MIC [2]: 32 µM

Compound: CC[C@H](C)[C@H](NC(=O)[C@H](CCCNC(=N)N)NC(=O)[C@@H](N)CCCNC(=N)N)C(=O)N[C@@H](CCCNC(=N)N)C(=O)N1CCC[C@H]1C(=O)N[C@@H](CCCNC(=N)N)C(=O)N1CCC[C@H]1C(=O)N1CCC[C@H]1C(=O)N[C@@H](CCCNC(=N)N)C(=O)N[C@@H](CC(C)C)C(=O)N1CCC[C@H]1C(=O)N[C@@H](CCCNC(=N)N)C(=O)N1CCC[C@H]1C(=O)N[C@@H](CSc1ccc2n1[B-](F)(F)[N+]1=CC=CC1=C2)C(=O)O (H-RRIRPRPPRLPRPC(X1)-OH)
- Drug uptake [10]: Active
- Drug uptake [11]: Not Active
- Drug uptake [12]: Not Active
- MIC [1]: 8 µM (≈ 15.7 µg/mL)
- MIC [2]: 16 µM (≈ 31.4 µg/mL)
- Drug uptake [13]: Not Active
- Drug uptake [14]: Not Active

Compound: CC[C@H](C)[C@H](NC(=O)[C@H](CCCNC(=N)N)NC(=O)[C@@H](N)CCCNC(=N)N(C)C)C(=O)N[C@@H](CCCNC(=N)N)C(=O)N1CCC[C@H]1C(=O)N[C@@H](CCCNC(=N)N)C(=O)N1CCC[C@H]1C(=O)N1CCC[C@H]1C(=O)N[C@@H](CCCNC(=N)N)C(=O)N[C@@H](CC(C)C)C(=O)N1CCC[C@H]1C(=O)N[C@@H](CCCNC(=N)N)C(=O)N1CCC[C@H]1C(=O)N[C@@H](CCCNC(=N)N)C(=O)N1CCC[C@H]1C(=O)N[C@@H](CCCNC(=N)N)C(=O)N1CCC[C@H]1C(=O)N[C@@H](CC(C)C)C(=O)N1CCC[C@H]1C(=O)N[C@@H](Cc1ccc(O)cc1)C(=O)N1CCC[C@H]1C(=O)N[C@@H](CCCNC(=N)N)C(=O)N1CCC[C@H]1C(=O)O (H-[Arg(Me2a)]RIRPRPPRLPRPRPRPLPYPRP-OH)
- MIC [5]: 0.5 µM (≈ 1.46 µg/mL)
- MIC [2]: 2 µM (≈ 5.85 µg/mL)
- MIC [7]: 8 µM (≈ 23.4 µg/mL)
- MIC [8]: 2 µM (≈ 5.85 µg/mL)

Compound: CC[C@H](C)[C@H](NC(=O)[C@H](CCCNC(=N)N)NC(=O)[C@@H](N)CCCNC(=N)N)C(=O)N[C@@H](CCCNC(=N)N)C(=O)N1CCC[C@H]1C(=O)N[C@@H](CCCNC(=N)N)C(=O)N1CCC[C@H]1C(=O)N1CCC[C@H]1C(=O)N[C@@H](CCCNC(=N)N)C(=O)N[C@@H](CC(C)C)C(=O)N1CCC[C@H]1C(=O)N[C@@H](CCCNC(=N)N)C(=O)N1CCC[C@H]1C(=O)N[C@@H](CCCNC(=N)N)C(=O)N1CCC[C@H]1C(=O)N[C@@H](CSc1ccc2n1[B-](F)(F)[N+]1=CC=CC1=C2)C(=O)O (H-RRIRPRPPRLPRPRPC(X1)-OH)
- Drug uptake [11]: Not Active
- Drug uptake [12]: Not Active
- MIC [1]: 1 µM (≈ 2.21 µg/mL)
- MIC [2]: 1 µM (≈ 2.21 µg/mL)
- Drug uptake [13]: Not Active
- Drug uptake [14]: Not Active

Compound: H-KKIRPRPPRLPRPRPRPLPYPRP-OH
- MIC [5]: 2 µM
- MIC [2]: 4 µM
- MIC [7]: 16 µM
- MIC [8]: 4 µM

Compound: CC[C@H](C)[C@H](NC(=O)[C@H](CCCNC(=N)N)NC(=O)[C@@H](N)CCCNC(=N)N)C(=O)N[C@@H](CCCNC(=N)N)C(=O)N1CCC[C@H]1C(=O)N[C@@H](CCCNC(=N)N)C(=O)N1CCC[C@H]1C(=O)N1CCC[C@H]1C(=O)N[C@@H](CCCNC(=N)N)C(=O)N[C@@H](CC(C)C)C(=O)N1CCC[C@H]1C(=O)N[C@@H](CCCNC(=N)N)C(=O)N1CCC[C@H]1C(=O)N[C@@H](CCCNC(=N)N)C(=O)N1CCC[C@H]1C(=O)N[C@@H](CCCNC(=N)N)C(=O)N1CCC[C@H]1C(=O)N[C@@H](CC(C)C)C(=O)N1CCC[C@H]1C(=O)N[C@@H](Cc1ccccc1)C(=O)N1CCC[C@H]1C(=O)N[C@@H](CCCNC(=N)N)C(=O)N1CCC[C@H]1C(=O)N[C@@H](CSc1ccc2n1[B-](F)(F)[N+]1=CC=CC1=C2)C(=O)O (H-RRIRPRPPRLPRPRPRPLPFPRPC(X1)-OH)
- Drug uptake [11]: Active
- Drug uptake [12]: Active
- Drug uptake [3]: Not Active
- Drug uptake [13]: Active
- Drug uptake [14]: Active

Compound: H-RRIRPRPPRLPRPC-OH
- MIC [1]: 128 µM
- MIC [2]: > 128 µM

Reference: ChEMBL document CHEMBL3407397, “Effect of size and N-terminal residue characteristics on bacterial cell penetration and antibacterial activity of the proline-rich peptide Bac7” (J Med Chem, 2015)
